From patent US20250127162A1, “METHODS AND COMPOSITIONS FOR CONTROLLING PESTS IN RICE” (Globachem NV, priority 2022, published 2025)

What was measured:
Rice = assay: Phytotoxicity on rice (Example 1, Trials 1-2, Spain); format: in vivo; design: key: % leaf necrosis/discoloration vs untreated plants; conditions: applications AB
Source text: “Low Phytotoxicity” of pelargonic acid, as used herein means that the toxic effect on plants is absent or at such a level so as not to adversely impact the growth and/or yield of the plant under a given set of test conditions, e.g., at a given concentration of pelargonic acid. Phytotoxic effects may be measured in a number of different ways, for example, according to the principals set out in OEPP/EPPO Bulletin (2014) 44 (3), 265-273 “PP 1/135 (4) Phytotoxicity assessment”. The phytotoxic effect on plants may be assessed visually as a function of the percentage of discoloration to the leaves and/or the appearance of necrosis. When the pelargonic acid compositions are applied to the foliage of the rice plants in accordance with the teachings herein, will typically result in a level of phytotoxicity of less than 20%, preferably less than 15%, more preferably less than 10% necrosis of the leaves in comparison to untreated plants. Preferred uses of the invention will typically result in phytotoxicity of 7% or less, whilst the most preferred uses will typically result in phytotoxicity of 5% or less. The above values are approximate as any purely visual assessment is likely to contain a degree of subjectivity.
(§1) All applications were made with an EC formulation containing 650 g/L of pelargonic acid (e.g., 685 g/L of 95% purity pelargonic acid), an anionic emulsifier and a branched fatty acid ester solvent.
Application A was made to the crops at the beginning of infestations; for these trials, Stage BBCH 59; Application B was made 14 days after Application A.
(§2) Trial 1 was conducted in Spain using a water volume of 300 L/ha of water per application unless otherwise indicated. Pest Incidence/Number of Insects (PESINC) and Pest Severity (PESSEV) as a Percent of Untreated Check (% UNCK) as well as Phytotoxicity were assessed at various treatment evaluation intervals.
as §2, with “2” for “1”

Oryzaphagus oryzae = assay: Rice field trials, number of Oryzaphagus oryzae (Example 2, Trials 1-2, Brazil); format: in vivo; conditions: 3 days after application; for Number of Oryzaphagus oryzae, Average: average of 4 repetitions; for Number of Oryzaphagus oryzae, Repetition A / Number of Oryzaphagus oryzae, Repetition B / Number of Oryzaphagus oryzae, Repetition C / Number of Oryzaphagus oryzae, Repetition D: one application
Protocol: as §1
Trials 1-2 assessing the use of pelargonic acid for controlling Oryzaphagus oryzae in rice were conducted in Brazil. One application was made 5 days after the first flood irrigation. Assessments of the number of Oryzaphagus oryzae were made three (3) days after application for each of the four (4) repetitions at each dose rate.

[1] = Trial 1, listed as PA 487.5 g/ha
[2] = Trial 1, listed as PA 1300 g/ha
[3] = Trial 2, listed as PA 487.5 g/ha
[4] = Trial 2, listed as PA 1300 g/ha

CCCCCCCCC(=O)O [PA 650 g/ha, pelargonic acid]
Phytotoxicity (Rice; Trial 2 (PESINC table), water volume 150 L/ha): 0
Phytotoxicity (Rice; Trial 2 (PESINC table), water volume 300 L/ha): 0
Phytotoxicity (Rice; Trial 2 (PESSEV table), water volume 150 L/ha): 0
Phytotoxicity (Rice; Trial 2 (PESSEV table), water volume 300 L/ha): 0
E % (Oryzaphagus oryzae; Trial 1): 90%
Number of Oryzaphagus oryzae, Average (Oryzaphagus oryzae; Trial 1): 0.25 b
Number of Oryzaphagus oryzae, Average (Oryzaphagus oryzae; [1]): 0.5 b
Number of Oryzaphagus oryzae, Average (Oryzaphagus oryzae; Trial 1, listed as PA 975 g/ha): 0.25 b
Number of Oryzaphagus oryzae, Average (Oryzaphagus oryzae; [2]): 0 b
E % (Oryzaphagus oryzae; [1]): 80%
E % (Oryzaphagus oryzae; Trial 1, listed as PA 975 g/ha): 90%
E % (Oryzaphagus oryzae; [2]): 100%
Number of Oryzaphagus oryzae, Repetition A (Oryzaphagus oryzae; Trial 1): 1
Number of Oryzaphagus oryzae, Repetition B (Oryzaphagus oryzae; Trial 1): 0
Number of Oryzaphagus oryzae, Repetition C (Oryzaphagus oryzae; Trial 1): 0
Number of Oryzaphagus oryzae, Repetition D (Oryzaphagus oryzae; Trial 1): 0
Number of Oryzaphagus oryzae, Repetition A (Oryzaphagus oryzae; [1]): 0
Number of Oryzaphagus oryzae, Repetition B (Oryzaphagus oryzae; [1]): 1
Number of Oryzaphagus oryzae, Repetition C (Oryzaphagus oryzae; [1]): 1
Number of Oryzaphagus oryzae, Repetition D (Oryzaphagus oryzae; [1]): 0
Number of Oryzaphagus oryzae, Repetition A (Oryzaphagus oryzae; Trial 1, listed as PA 975 g/ha): 0
Number of Oryzaphagus oryzae, Repetition B (Oryzaphagus oryzae; Trial 1, listed as PA 975 g/ha): 0
Number of Oryzaphagus oryzae, Repetition C (Oryzaphagus oryzae; Trial 1, listed as PA 975 g/ha): 0
Number of Oryzaphagus oryzae, Repetition D (Oryzaphagus oryzae; Trial 1, listed as PA 975 g/ha): 1
Number of Oryzaphagus oryzae, Repetition A (Oryzaphagus oryzae; [2]): 0
Number of Oryzaphagus oryzae, Repetition B (Oryzaphagus oryzae; [2]): 0
Number of Oryzaphagus oryzae, Repetition C (Oryzaphagus oryzae; [2]): 0
Number of Oryzaphagus oryzae, Repetition D (Oryzaphagus oryzae; [2]): 0
E % (Oryzaphagus oryzae; Trial 2): 77.78%
Number of Oryzaphagus oryzae, Average (Oryzaphagus oryzae; Trial 2): 0.5 ab
Number of Oryzaphagus oryzae, Average (Oryzaphagus oryzae; [3]): 0.75 ab
Number of Oryzaphagus oryzae, Average (Oryzaphagus oryzae; Trial 2, listed as PA 975 g/ha): 0.25 b
Number of Oryzaphagus oryzae, Average (Oryzaphagus oryzae; [4]): 0 b
E % (Oryzaphagus oryzae; [3]): 66.67%
E % (Oryzaphagus oryzae; Trial 2, listed as PA 975 g/ha): 88.89%
E % (Oryzaphagus oryzae; [4]): 100%
Number of Oryzaphagus oryzae, Repetition A (Oryzaphagus oryzae; Trial 2): 1
Number of Oryzaphagus oryzae, Repetition B (Oryzaphagus oryzae; Trial 2): 0
Number of Oryzaphagus oryzae, Repetition C (Oryzaphagus oryzae; Trial 2): 0
Number of Oryzaphagus oryzae, Repetition D (Oryzaphagus oryzae; Trial 2): 1
Number of Oryzaphagus oryzae, Repetition A (Oryzaphagus oryzae; [3]): 0
Number of Oryzaphagus oryzae, Repetition B (Oryzaphagus oryzae; [3]): 1
Number of Oryzaphagus oryzae, Repetition C (Oryzaphagus oryzae; [3]): 2
Number of Oryzaphagus oryzae, Repetition D (Oryzaphagus oryzae; [3]): 0
Number of Oryzaphagus oryzae, Repetition A (Oryzaphagus oryzae; Trial 2, listed as PA 975 g/ha): 1
Number of Oryzaphagus oryzae, Repetition B (Oryzaphagus oryzae; Trial 2, listed as PA 975 g/ha): 0
Number of Oryzaphagus oryzae, Repetition C (Oryzaphagus oryzae; Trial 2, listed as PA 975 g/ha): 0
Number of Oryzaphagus oryzae, Repetition D (Oryzaphagus oryzae; Trial 2, listed as PA 975 g/ha): 0
Number of Oryzaphagus oryzae, Repetition A (Oryzaphagus oryzae; [4]): 0
Number of Oryzaphagus oryzae, Repetition B (Oryzaphagus oryzae; [4]): 0
Number of Oryzaphagus oryzae, Repetition C (Oryzaphagus oryzae; [4]): 0
Number of Oryzaphagus oryzae, Repetition D (Oryzaphagus oryzae; [4]): 0
